Measurements published in patent US6515025B2, “Use of ethynyl alanine amino diol compounds to inhibit enzymatic conversion of angiotensinogen to angiotensin I” (Pharmacia Corporation, priority 1991, dated 2003).
Values joined by “and” are separate entries in the source; they are usually repeats but may differ in a detail not shown here. Equal values may be shown once. Read-outs that look alike come from different tables or passages of the source.

Experiment: Oral bioavailability studies in dogs (plasma concentration by bioassay)
Assay type: in vivo
Conditions: dog
Method: The bioavailability in marmosets and dogs was determined by sampling the blood via the femoral vein at various time points after administering the renin inhibitor compounds of the invention in polyethylene glycol 400 at an intragastric dose of 10 mg/kg or at an intravenous dose of 1 mg/kg. Compound concentration in plasma was determined using the bioassay technique described below. The percent bioavailability was calculated by dividing the area under the concentration-vs.-time curve obtained from the intragastric experiment by the area under the concentration-vs.-time curve obtained from the intravenous experiment (adjusting for different doses), and multiplying the result by 100%. The bioavailibility of Example 1 compound is 27% in marmosets and 33% in dogs.
Renin inhibitor plasma concentrations were determined by a bioassay. The plasma samples were extracted with acetonitrile and the extract was evaporated to dryness under nitrogen. Residue was dissolved in 4% bovine serum albumin containing 0.9% NaCl and 5% EDTA. The dissolved residue (0.1 ml) was incubated with a reaction mixture containing human plasma (0.12 ml), 5% phenylmethysulfonylfluoride (1.2 ul), 10% neomycin (2.4 ul), 0.5 M TES buffer (pH 7.4, 24 ul), and 0.6 mU/ml recombinant human renin (1000 U/mg, 50 ul) at 37° C. for 90 minutes. The renin activity was determined by a standard angiotensin I radioimmunoassay (New England Nuclear Corp.). The amount of test compound in the plasma was determined by comparing the extent of inhibition of renin activity with that produced by a known amount of test compound added to plasma and analyzed above.

Oral (%) Bioavail, Mean ± SE (IG 10 mg/kg vs IV 1 mg/kg): 33.1 ± 3.8%
Oral (%) Bioavail (IG 10 mg/kg vs IV 1 mg/kg, individual animals): 35.8% and 25.6% and 38.0%
Estimated Plasma Concentration (IG at 10 mg/kg, 1 hr, individual animals, 10 mg/kg): 859.6 ng/mL
Estimated Plasma Concentration (IG at 10 mg/kg, 2 hr, individual animals, 10 mg/kg): 352.7 ng/mL and 554.5 ng/mL
Estimated Plasma Concentration (IG at 10 mg/kg, 4 hr, individual animals, 10 mg/kg): 68.8 ng/mL and 130.3 ng/mL
Estimated Plasma Concentration (IG at 10 mg/kg, 6 hr, individual animals, 10 mg/kg): 47.1 ng/mL and 72.4 ng/mL
Estimated Plasma Concentration (IG at 10 mg/kg, 8 hr, individual animals, 10 mg/kg): 25.4 ng/mL and 45.4 ng/mL
Estimated Plasma Concentration (IG at 10 mg/kg, 24 hr, individual animals, 10 mg/kg): 8.4 ng/mL and 8.0 ng/mL
Estimated Plasma Concentration (IV at 1 mg/kg, 2 min, individual animals, 1 mg/kg): 3284.4 ng/mL and 2982.7 ng/mL
Estimated Plasma Concentration (IV at 1 mg/kg, 5 min, individual animals, 1 mg/kg): 680.9 ng/mL and 521.1 ng/mL
Estimated Plasma Concentration (IV at 1 mg/kg, 10 min, individual animals, 1 mg/kg): 307.1 ng/mL and 218.0 ng/mL
Estimated Plasma Concentration (IV at 1 mg/kg, 15 min, individual animals, 1 mg/kg): 144.4 ng/mL and 146.9 ng/mL
Estimated Plasma Concentration (IV at 1 mg/kg, 30 min, individual animals, 1 mg/kg): 102.8 ng/mL and 122.5 ng/mL
Estimated Plasma Concentration (IV at 1 mg/kg, 1 hr, individual animals, 1 mg/kg): 67.6 ng/mL and 50.0 ng/mL
Estimated Plasma Concentration (IV at 1 mg/kg, 2 hr, individual animals, 1 mg/kg): 56.0 ng/mL and 69.8 ng/mL
Estimated Plasma Concentration (IV at 1 mg/kg, 4 hr, individual animals, 1 mg/kg): 23.5 ng/mL
Estimated Plasma Concentration (IV at 1 mg/kg, 6 hr, individual animals, 1 mg/kg): 10.2 ng/mL and 13.5 ng/mL
Estimated Plasma Concentration (IV at 1 mg/kg, 8 hr, individual animals, 1 mg/kg): 4.9 ng/mL and 6.1 ng/mL
Estimated Plasma Concentration (IV at 1 mg/kg, 24 hr, individual animals, 1 mg/kg): 1.5 ng/mL and 1.3 ng/mL
Vd (individual animals): 8.7 L/kg and 8.3 L/kg
t1/2 (individual animals): 4.4 h and 4.3 h
half-life (plasma, dogs, read-out: terminal half-life (converted)): 4.7 h
Vd (plasma, dogs, read-out: volume of distribution): 9.5 L/kg
Vd (plasma, individual animals, read-out: Vd): 11.5 L/kg
half-life (plasma, individual animals, read-out: t1/2 (converted)): 5.3 h
concentration at 2 min (plasma, iv, 1 mg/kg, IV at 1 mg/kg, 2 min, individual animals, read-out: Estimated Plasma Concentration): 2420 ng/mL
concentration at 2 min (plasma, iv, 1 mg/kg, IV at 1 mg/kg, 2 min, read-out: Estimated Plasma Concentration, Mean ± SE): 2890 ± 254 ng/mL
concentration at 5 min (plasma, iv, 1 mg/kg, IV at 1 mg/kg, 5 min, individual animals, read-out: Estimated Plasma Concentration): 613 ng/mL
concentration at 5 min (plasma, iv, 1 mg/kg, IV at 1 mg/kg, 5 min, read-out: Estimated Plasma Concentration, Mean ± SE): 605 ± 46.3 ng/mL
concentration at 10 min (plasma, iv, 1 mg/kg, IV at 1 mg/kg, 10 min, individual animals, read-out: Estimated Plasma Concentration): 299 ng/mL
concentration at 10 min (plasma, iv, 1 mg/kg, IV at 1 mg/kg, 10 min, read-out: Estimated Plasma Concentration, Mean ± SE): 275 ± 28.4 ng/mL
concentration at 15 min (plasma, iv, 1 mg/kg, IV at 1 mg/kg, 15 min, individual animals, read-out: Estimated Plasma Concentration): 218 ng/mL
concentration at 15 min (plasma, iv, 1 mg/kg, IV at 1 mg/kg, 15 min, read-out: Estimated Plasma Concentration, Mean ± SE): 170 ± 24.1 ng/mL
concentration at 30 min (plasma, iv, 1 mg/kg, IV at 1 mg/kg, 30 min, individual animals, read-out: Estimated Plasma Concentration): 145 ng/mL
concentration at 30 min (plasma, iv, 1 mg/kg, IV at 1 mg/kg, 30 min, read-out: Estimated Plasma Concentration, Mean ± SE): 123 ± 12.1 ng/mL
concentration at 1 h (plasma, iv, 1 mg/kg, IV at 1 mg/kg, 1 hr, individual animals, read-out: Estimated Plasma Concentration): 70.4 ng/mL
Compound: C#CC[C@H](NC(=O)C(CC(=O)N(C)CCN(C)C)Cc1ccccc1)C(=O)NC(CC1CCCCC1)[C@@H](O)C(O)CC(C)C (relative stereo) [Example 1, N1-[1R*-[[[1S,1R*-(cyclohexylmethyl)-2S*,3R*-dihydroxy-5-methylhexyl]amino]carbonyl]-3-butynyl]-N4-[2-(dimethylamino)ethyl]-N4-methyl-2S*-(phenylmethyl)butanediamide]
Estimated Plasma Concentration (IG at 10 mg/kg, 15 min, individual animals, 10 mg/kg): 105.7 ng/mL and <2.0 ng/mL and 265.6 ng/mL
Estimated Plasma Concentration (IG at 10 mg/kg, 30 min, individual animals, 10 mg/kg): 495.9 ng/mL and 330.4 ng/mL and 864.7 ng/mL
